Experimental data: PubChem BioAssay AID1996
Converted amounts (≈) assume the structure as drawn.

Conditions: buffer; pH 7.4; 200.0 µM

SMILES	solubility kinetic
COCC(C)n1c(C)cc(C(=O)COC(=O)c2cc(=O)[nH]c3ccccc23)c1C (stereo not drawn)	11 µg/mL (≈ 27.7 µM)
Cc1ccc2cccc(OC(=O)/C=C\c3ccccc3)c2n1	16.8 µg/mL (≈ 58.1 µM)
Cc1ccc(CNCc2cccnc2)s1.Cl	> 38.2 µg/mL
O=C(COc1ccc(Cl)cc1)NCCNC(=O)c1ccccn1	47.6 µg/mL (≈ 143 µM)
Cc1ccccc1/C=C/c1cc[n+](C)cc1.[I-]	> 50.6 µg/mL
CCSc1c([N+](=O)[O-])c(=O)n(-c2ccccc2)c2ccccc12	1.3 µg/mL (≈ 3.98 µM)
Cc1cc(C)cc(NC(=O)c2ccc([N+](=O)[O-])o2)c1	8.3 µg/mL (≈ 31.9 µM)
O=C(Nc1cccc(C(=O)O)c1)/C(=C\c1ccco1)NC(=O)c1ccccc1	51 µg/mL (≈ 136 µM)
COc1ccccc1N(C)S(=O)(=O)c1ccc(C(=O)Nc2cccc(Br)c2)cc1	3 µg/mL (≈ 6.31 µM)
CC(NC(=O)COC(=O)/C=C/c1cccc(F)c1)c1ccccc1 (stereo not drawn)	6.1 µg/mL (≈ 18.6 µM)
Cc1ccc(S(=O)(=O)c2ccc([N+](=O)[O-])cn2)cc1	21 µg/mL (≈ 75.5 µM)
COc1ccc(C(=O)NCCc2c[nH]c3ccccc23)cc1[N+](=O)[O-]	10.8 µg/mL (≈ 31.8 µM)
CSc1ccccc1NC(=O)COC(=O)CCC(=O)c1ccc(F)cc1	> 56.3 µg/mL
Cc1csc(N)n1	10.8 µg/mL (≈ 94.6 µM)
Cc1cc(C)c2ccc(/C=N/O)nc2c1O	2.8 µg/mL (≈ 12.9 µM)
CCCc1cc(=O)[nH]c(NCCc2ccccc2)n1	> 38.6 µg/mL
O=C(OCC(=O)c1ccc[nH]1)c1ccc(Cl)c(Cl)c1	6.8 µg/mL (≈ 22.8 µM)
N#CCCN(Cc1cccnc1)C(=S)NCc1ccco1	> 45.1 µg/mL
C=CCn1c(=O)c(C(=O)Nc2ccc(C)cc2)c(O)c2ccccc21	< 0.4 µg/mL
O=C(O/N=C(/c1ccccc1)c1ccncc1)c1ccccc1[N+](=O)[O-]	8.3 µg/mL (≈ 23.9 µM)
Cc1ccnc(NC(=O)CCS(=O)(=O)c2ccccc2)c1	> 45.7 µg/mL
CSC1=N/C(=C/c2cccnc2)C(=O)N1Cc1ccc(Cl)cc1	1.1 µg/mL (≈ 3.2 µM)
COc1ccc(CNCc2cccc(C)c2)cc1.O=C(O)C(=O)O	> 49.7 µg/mL
Cn1c(=O)c2c(ncn2CCC(=O)N/N=C/c2cccnc2)n(C)c1=O	> 53.3 µg/mL
COc1ccc(OC)c(C(=O)COC(=O)c2ccc([N+](=O)[O-])o2)c1	> 50.3 µg/mL
Cc1ccccc1SCC(=O)NCCCn1ccnc1	42.9 µg/mL (≈ 148 µM)
NC(=O)c1cnccn1	> 18.5 µg/mL

SMILES	solubility kinetic
O=C(O)c1ccc(S(=O)(=O)NCc2ccc3c(c2)OCO3)cc1	> 50.3 µg/mL
COc1cccc(-n2c(-c3ccccc3)c[nH]c2=S)c1	7.8 µg/mL (≈ 27.6 µM)
C#CCN1CCN(c2cccc(C(F)(F)F)c2)CC1	9.8 µg/mL (≈ 36.5 µM)
Cc1cc(OCCCCN2C(=O)NC(C)(C)C2=O)ccc1[N+](=O)[O-]	> 50.3 µg/mL
Nc1nc(-c2ccccc2)c(C(=O)Nc2ccccc2)s1	9.4 µg/mL (≈ 31.8 µM)
Cc1ccc(F)c(N=Cc2c(O)c3ccccc3oc2=O)c1	1.8 µg/mL (≈ 6.05 µM)
Cl.O=C1C2CCCC1C(N1CCCCC1)CC2 (stereo not drawn)	> 38.7 µg/mL
CN1C/C(=C/c2ccncc2)C(=O)/C(=C/c2ccncc2)C1	40.9 µg/mL (≈ 140 µM)
O=[N+]([O-])c1cccc(S(=O)(=O)N2CCc3ccccc3C2)c1	< 0.3 µg/mL
NC(=O)c1ccc(Nc2ccc3nonc3c2[N+](=O)[O-])cc1	17.9 µg/mL (≈ 59.8 µM)
CCOc1ccc(OCc2ccc(C(=O)NC(C)(C)C)o2)cc1	8.8 µg/mL (≈ 27.7 µM)
COc1ccccc1OCCNC(=O)CCS(=O)(=O)c1ccccc1	> 54.5 µg/mL
COc1nc(N(C)C)nc(N(C#N)CCOC(C)=O)n1	> 42 µg/mL
CCCC(=O)NC(c1ccc(Cl)cc1)c1ccc2cccnc2c1O (stereo not drawn)	0.4 µg/mL (≈ 1.13 µM)
CN1C(C(=O)c2ccccc2)=C(N)c2ccccc2S1(=O)=O	40.9 µg/mL (≈ 130 µM)
O=C1CC(Sc2ccc(Cl)cc2)C(=O)N1c1ccc2c(c1)OCCO2 (stereo not drawn)	13 µg/mL (≈ 34.6 µM)
CCN(CC)CC(=O)Nn1c(C)nc2c(ncn2-c2ccccc2)c1=O	> 53.2 µg/mL
O=C(Cc1c[nH]c2ccccc12)NCc1ccco1	> 38.1 µg/mL
CCN(CC)CCOC(=O)C(c1ccccc1)c1ccccc1.Cl	> 52.2 µg/mL
CCC(C)C12CN3CCN(CC(C)(C3)C1O)C2 (stereo not drawn)	> 35.8 µg/mL
CCOC(=O)c1cnc2c(cnn2C)c1NCCCn1ccnc1	> 49.3 µg/mL
O=C(CNC(=O)c1ccco1)OCC(=O)c1ccc([N+](=O)[O-])cc1	> 49.8 µg/mL
COc1cc(C(C)=O)ccc1OCC(=O)Nc1cc(C)on1	8.3 µg/mL (≈ 27.3 µM)
CCOC(=O)c1[nH]cnc1C(=O)Nc1ccc(C)cc1	4.9 µg/mL (≈ 17.9 µM)
CC(=O)c1ccc(-c2ccc(C(=O)Nc3nc(-c4ccccn4)cs3)o2)cc1	4.9 µg/mL (≈ 12.6 µM)
CC(C)COc1ccc(C(=O)N2C(=O)c3ccc(N)cc3C2=O)cc1	1.8 µg/mL (≈ 5.32 µM)
Cn1c(=O)c2c(ncn2CCO)n(C)c1=O	> 33.6 µg/mL

Other lines, results leading:

solubility kinetic	SMILES
> 42.9 µg/mL	COc1cc(OC)c(NC(=O)/C=C/C(=O)O)cc1Cl
> 45.2 µg/mL	COc1cc(S(=O)(=O)NC2CCCCC2C)ccc1F (stereo not drawn)
> 49 µg/mL	COc1cccc(CNC(=O)CC(NC(C)=O)c2ccccc2)c1 (stereo not drawn)
> 40.8 µg/mL	Cc1ccc(NC(=O)CNC(=O)c2ccc(C)o2)cc1
5.3 µg/mL (≈ 17.7 µM)	Cc1ccc(NC(=O)c2ccc3c(c2)NC(=O)CS3)nc1
39.9 µg/mL (≈ 142 µM)	CC(=O)NC1c2ccccc2C(=O)N1Cc1ccccc1 (stereo not drawn)
10.1 µg/mL (≈ 27 µM)	COC(=O)c1ccc(NC(=O)CN2C(=O)NC3(CCC(C)CC3)C2=O)cc1 (stereo not drawn)
> 45.7 µg/mL	CC(=O)N1CCC(C(=O)NCCOc2ccc(C)cc2)CC1
> 36.1 µg/mL	CCCN(CC1CC1)C(=S)NC(=O)C1CC1
> 40.7 µg/mL	Cc1nnc(NC(=O)c2ccc3nccnc3c2)s1
34.8 µg/mL (≈ 137 µM)	Cc1ccc(N(C)C2=NC(=O)CS2)cc1Cl
> 51.1 µg/mL	O=C(Nc1ccccc1C(=O)N1CCCCCC1)c1ccc(F)cc1
3.4 µg/mL (≈ 9.17 µM)	O=C(NC(=S)Nc1ccc(Cl)cc1)c1cncc(Br)c1
> 45.8 µg/mL	O=C(CSc1nnc(C2CC2)n1C1CC1)c1cccs1
9.1 µg/mL (≈ 28.7 µM)	O=C(CCn1c(=S)[nH]c2ccccc2c1=O)N1CCCCC1
2.2 µg/mL (≈ 7.18 µM)	COc1ccc(OC)c(NC(=O)NC2CCCCCCC2)c1
18 µg/mL (≈ 51.2 µM)	CC1C=CCC2C(=O)N(c3ccc(OC(=O)c4ccco4)cc3)C(=O)C12 (stereo not drawn)
9.9 µg/mL (≈ 23.7 µM)	Cc1ccc(SCC(=O)Nc2cc(S(=O)(=O)N3CCCCC3)ccc2C)cc1
> 58.6 µg/mL	CC(=O)Nc1ccc(S(=O)(=O)Nc2nc(C)nc3sc(C)c(C)c23)cc1
5 µg/mL (≈ 14.8 µM)	Cc1ccc(NC(=O)C2CCCN2C(=O)NCc2ccccc2)cc1 (stereo not drawn)
> 43.8 µg/mL	CCN1CCN(C(=O)c2cc3cc(Cl)ccc3[nH]2)CC1
28.1 µg/mL (≈ 147 µM)	Cn1cccc1/C=C(\C#N)C(N)=S

solubility kinetic	SMILES
> 43.4 µg/mL	Cc1ccsc1C(=O)NCC(=O)OCc1ccccc1
19.9 µg/mL (≈ 52.7 µM)	CCC1CCC2(CC1)NC(=O)N(CC(=O)NCc1ccccc1Cl)C2=O (stereo not drawn)
10.2 µg/mL (≈ 31.7 µM)	Cc1noc(C)c1NC(=O)NC(c1ccccc1)c1ccccc1
42.2 µg/mL (≈ 141 µM)	CCOC(=O)c1ccc(NC(=O)NCc2ccccn2)cc1
33.6 µg/mL (≈ 147 µM)	Cc1ccc(C(=O)NCc2ccco2)c(C)c1
> 39.7 µg/mL	CN1CCN(C(=O)/C=C/c2cccc(Cl)c2)CC1
3.8 µg/mL (≈ 16.9 µM)	CNC(=S)NC12CC3CC(CC(C3)C1)C2
0.9 µg/mL (≈ 2.93 µM)	Cc1cc2oc(C(=O)NCc3ccccc3)cc(=O)c2cc1C
> 67.4 µg/mL	CCc1cccc(CC)c1-n1c(SCC(=O)N2CCCc3ccccc32)nc(O)cc1=O
> 70.6 µg/mL	CN1CCC(N(C)C(=O)c2ccc(Cl)c(S(=O)(=O)N(C)c3ccc(Cl)cc3)c2)CC1
> 40.9 µg/mL	Cc1ccc(C)c(N2CCN(C(=O)C3CCC3)CC2)c1
> 39.7 µg/mL	CCc1nc2sc3c(c2c(=O)n1CCO)CCC3
41.3 µg/mL (≈ 125 µM)	Cc1c(C(=O)O)sc2nc(/C=C/c3cccc(F)c3)[nH]c(=O)c12
> 49.9 µg/mL	Cc1ccc(NC(=O)CN(C)C(=O)CSc2nccn2C)cc1
> 44.3 µg/mL	CC1CC1C(=O)OCC(=O)c1c(N)n(C)c(=O)n(C)c1=O (stereo not drawn)
> 42.5 µg/mL	Cc1ccc(C(=O)Nc2ccc3c(c2)OCCO3)c(C)c1
> 52.1 µg/mL	CCOC(=O)C1(Cc2cccc(F)c2)CCN(C(=O)C2CCC2)CC1
> 48.7 µg/mL	C=CCNC(=O)COc1ccc(S(=O)(=O)N2CCCC2)cc1
> 49 µg/mL	CCOc1ccccc1NS(=O)(=O)c1csc(C(N)=O)c1
1.6 µg/mL (≈ 5.17 µM)	Cc1nc(Nc2ccccc2)sc1C(=O)Nc1ccccc1
> 51.5 µg/mL	CC1CCCCC12NC(=O)N(CC(=O)NCCc1ccccc1)C2=O (stereo not drawn)
> 44.3 µg/mL	O=C(c1ccco1)N1CCC(c2nc3ccccc3[nH]2)CC1

solubility kinetic	SMILES
40.3 µg/mL (≈ 133 µM)	Cc1ccc(CCNC(=O)CNC(=O)c2cccs2)cc1
> 53.2 µg/mL	Cc1ccc(S(=O)(=O)N2CCCN(C(=O)OC(C)(C)C)CC2)cc1
> 47.9 µg/mL	OC(CC#CCN1CCCCC1)(c1ccccc1)c1ccccc1
31.6 µg/mL (≈ 104 µM)	COc1ccc2[nH]c(C(=O)NCCN3CCOCC3)cc2c1
> 62.2 µg/mL	CN(C(=O)CSc1nnc(-c2ccc(Cl)cc2)n1C)C1CCS(=O)(=O)C1 (stereo not drawn)
< 0.3 µg/mL	O=C(NCc1ccccc1)N1CCC(Cc2ccccc2)CC1
> 45.5 µg/mL	CC(=O)NC(CC(=O)Nc1nc(C)cs1)c1ccccc1 (stereo not drawn)
41.8 µg/mL (≈ 149 µM)	CC1CCCN(C(=O)NC(=O)c2ccc(Cl)cc2)C1 (stereo not drawn)
7.1 µg/mL (≈ 29.8 µM)	Cc1ccc(C(=O)Nc2ncc(C)s2)s1
2.6 µg/mL (≈ 8.43 µM)	CC(C)NC(=O)c1ccc(CN2CCc3ccccc3C2)cc1
> 48.2 µg/mL	CCc1nc2ccccc2n1CC(=O)NC1CCS(=O)(=O)C1 (stereo not drawn)
> 44.3 µg/mL	O=C(CN1C(=O)NC2(CCCCC2)C1=O)N1CCOCC1
5 µg/mL (≈ 16.4 µM)	CCOC(=O)c1c(NC(=O)c2ccncc2)sc(C)c1C
1.5 µg/mL (≈ 4.58 µM)	COc1cc(C(=S)N2CCCC2)ccc1OCc1ccccc1
25 µg/mL (≈ 69.4 µM)	COc1cccc(OC)c1C(=O)Nc1sc2c(c1C(N)=O)CCCC2
> 46.1 µg/mL	Cc1ccn2cc(CNS(=O)(=O)c3cccs3)nc2c1
< 0.3 µg/mL	Cc1cc(C(=O)Nc2ccc3c(c2)CCC3)ccc1[N+](=O)[O-]
> 51.6 µg/mL	O=C(CN1CCN(Cc2ccccc2)CC1)Nc1cccc(Cl)c1
> 47.9 µg/mL	CN1CCN(c2ccccc2/C=C2/C(=O)Nc3ccccc32)CC1
46.9 µg/mL (≈ 142 µM)	Cc1c(C)n(CCCN(C)C)c2ncnc(NC3CCCCC3)c12
